{"source": "patent US9700633B2", "about": "“Conjugates of water soluble polymer-amino acid oligopeptide-drug, preparation method and use thereof” (JENKEM TECHNOLOGY CO. LTD., TIANJIN BRANCH, priority 2013, dated 2017)", "key": {"[1]": {"tested_on": "human liver cancer plc/prf/5", "details": "10 mg/kg (based on rapamycin), i.v., Q2W × 2W", "procedure": "Plc/prf/5 cells were cultured in vitro in monolayer under conditions of MEM medium with supplement of 10% heat-inactivated fetal calf serum at 37° C. in an incubator at an atmosphere with 5% CO2. The cells were digested by using tyrisin-EDTA and passaged twice a week. Cells in exponential growth phase were collected, counted and used to inoculate.\n1×10^7 plc/prf/5 tumor cells were suspended in 0.1 mL mixture (PBS: Matrigel=4:1), and were inoculated to the right scapula on the back of each NOD/SCID mouse. When the average tumor volume reached about 350 mm^3 at 24th days after the inoculation, the mice with undersized or oversized tumor volume were removed and the other mice were divided to groups randomly according to the tumor volume and then were administrated."}, "[2]": {"test": "In vitro degradation assay in 0.01 M PBS buffer solution", "format": "physicochemical", "protocol": "In order to determine the degradation of the compounds in PBS buffer solution, the compounds DSR1˜6 were dissolved in 0.01 M PBS buffer solution, and were sampled every 30 min."}}, "note": "Where two headings read alike, the source gives them in different places.", "data": [{"substance": "conjugate of methoxy PEG (20K) dipeptide of glutamic acid glycine-rapamycin [LPR-2]", "values": [{"measurement": "Delayed days of tumor growth (to 1000 mm^3)", "setting": "[1]", "result": ">7", "unit": "days"}, {"measurement": "Tumor volume (average ± standard error)", "setting": "[1]; day 24 after the inoculation (grouping)", "result": "353 ± 54", "unit": "mm^3"}, {"measurement": "Tumor volume (average ± standard error)", "setting": "[1]; day 27 after the inoculation", "result": "404 ± 89", "unit": "mm^3"}, {"measurement": "Tumor volume (average ± standard error)", "setting": "[1]; day 31 after the inoculation", "result": "391 ± 72", "unit": "mm^3"}, {"measurement": "Tumor volume (average ± standard error)", "setting": "[1]; day 34 after the inoculation", "result": "456 ± 77", "unit": "mm^3"}, {"measurement": "Tumor volume (average ± standard error)", "setting": "[1]; day 38 after the inoculation", "result": "536 ± 77", "unit": "mm^3"}]}, {"substance": "conjugate of methoxy PEG dipeptide acid of glutamic acid (20K)-dasatinib [DSR-1]", "values": [{"measurement": "degradation", "setting": "[2]; at 60 min", "result": 60, "unit": "%"}]}, {"substance": "conjugate of methoxy PEG dipeptide of glutamic acid and glycine (20K)-dasatinib [DSR-2]", "values": [{"measurement": "degradation", "setting": "[2]; at 90 min", "result": 50, "unit": "%"}]}, {"substance": "conjugate of methoxy PEG dipeptide of glutamic acid alanine (20K)-dasatinib [DSR-3]", "values": [{"measurement": "degradation", "setting": "[2]; at 150 min", "result": 50, "unit": "%"}]}]}
